Laboratory results: patent publication US11566007B2, “Ras inhibitors” (Revolution Medicines, Inc., priority 2019, dated 2023)

Legend:
Assay type in all cases: biochemical
KRAS WT = KRAS WT (Homo sapiens (Human), UniProt P01116+P62937); experiment: Ras-Raf (BRAF RBD) disruption / FRET / MOA assay, KRAS WT; conditions: read-out: IC50* KRAS WT FRET data
Procedure, shortened: (§1)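 Ternary complex formation (Ras–compound–cyclophilin A) displacing BRAF RBD, monitored by TR-FRET. Three hours at 25° C with compound (top 30 μM final), then 1.5 h with the labelled antibodies. Lower ratio than DMSO indicates disruption; IC50 reported.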

NRAS G12C = NRAS G12C (Homo sapiens (Human), UniProt P01111+P62937, G12C); experiment: Ras-Raf (BRAF RBD) disruption / FRET / MOA assay, NRAS G12C; conditions: read-out: IC50* NRAS G12C FRET data
Procedure, shortened: as §1

KRAS G12S = KRAS G12S (Homo sapiens (Human), UniProt P01116+P62937, G12S); experiment: Ras-Raf (BRAF RBD) disruption / FRET / MOA assay, KRAS G12S; conditions: Ras-Raf disruption/FRET/MOA assay; class symbols; read-out: KRAS G12S FRET data IC50
Procedure, shortened: as §1

NRAS Q61R = NRAS Q61R (Homo sapiens (Human), UniProt P01111+P62937, Q61R); experiment: Ras-Raf (BRAF RBD) disruption / FRET / MOA assay, NRAS Q61R; conditions: NRAS Q61R; Ras-Raf disruption/FRET/MOA assay; read-out: IC50* NRAS Q61R FRET data
Procedure, shortened: (§2)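 Compounds were tested as a 10-point 3-fold dilution series from 30 μM final for their ability to drive ternary complex formation between nucleotide-loaded Ras and cyclophilin A, displacing the BRAF RBD. After 3 h at 25° C., anti-His Eu-W1024 (10 nM) and anti-GST allophycocyanin (50 nM) were added for 1.5 h. A TR-FRET ratio decrease versus DMSO gave IC50.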

K-Ras G13C = K-Ras G13C (Homo sapiens (Human), UniProt P01116+P62937, G13C); experiment: Ras-Raf (BRAF RBD) disruption / FRET / MOA assay, KRAS G13C; conditions: KRAS G13C; Ras-Raf disruption/FRET/MOA assay; read-out: IC50* KRAS G13C FRET data
Procedure, shortened: as §1

KRAS G13D = KRAS G13D (Homo sapiens (Human), UniProt P01116+P62937, G13D); experiment: Ras-Raf (BRAF RBD) disruption / FRET / MOA assay, KRAS G13D; conditions: read-out: IC50* KRAS G13D FRET data
Procedure, shortened: as §1

K-Ras G12C = K-Ras G12C (Homo sapiens (Human), UniProt P01116+P62937, G12C); experiment: Ras-Raf (BRAF RBD) disruption / FRET / MOA assay, KRAS G12C; conditions: KRAS G12C; Ras-Raf disruption/FRET/MOA assay; read-out: IC50* KRAS G12C FRET data
Procedure, shortened: as §1

KRAS G12V = KRAS G12V (Homo sapiens (Human), UniProt P01116+P62937, G12V); experiment: Ras-Raf (BRAF RBD) disruption / FRET / MOA assay, KRAS G12V; conditions: read-out: IC50* KRAS G12V FRET data
Procedure, shortened: as §1

NRAS Q61K = NRAS Q61K (Homo sapiens (Human), UniProt P01111+P62937, Q61K); experiment: Ras-Raf (BRAF RBD) disruption / FRET / MOA assay, NRAS Q61K; conditions: NRAS Q61K; Ras-Raf disruption/FRET/MOA assay; read-out: IC50* NRAS Q61K FRET data
Procedure, shortened: as §2

NRAS WT = NRAS WT (Homo sapiens (Human), UniProt P01111+P62937); experiment: Ras-Raf (BRAF RBD) disruption / FRET / MOA assay, NRAS WT; conditions: read-out: IC50* NRAS WT FRET data
Procedure, shortened: as §2

Sequence of NRAS WT (P01111 whole entry): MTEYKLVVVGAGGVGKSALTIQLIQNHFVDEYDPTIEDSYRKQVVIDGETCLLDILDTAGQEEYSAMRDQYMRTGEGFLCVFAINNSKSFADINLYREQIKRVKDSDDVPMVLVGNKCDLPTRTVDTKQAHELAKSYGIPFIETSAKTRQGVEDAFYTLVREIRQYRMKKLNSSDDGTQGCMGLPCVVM
Sequence of NRAS WT (P62937 whole entry): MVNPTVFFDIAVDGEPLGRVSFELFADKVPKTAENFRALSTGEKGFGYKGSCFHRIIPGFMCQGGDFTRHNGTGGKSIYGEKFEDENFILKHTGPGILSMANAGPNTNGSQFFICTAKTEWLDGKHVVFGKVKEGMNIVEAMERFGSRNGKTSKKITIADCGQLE
Sequence of KRAS G12V (P01116-2 other isoform, or with tags, fused parts or gaps G12V): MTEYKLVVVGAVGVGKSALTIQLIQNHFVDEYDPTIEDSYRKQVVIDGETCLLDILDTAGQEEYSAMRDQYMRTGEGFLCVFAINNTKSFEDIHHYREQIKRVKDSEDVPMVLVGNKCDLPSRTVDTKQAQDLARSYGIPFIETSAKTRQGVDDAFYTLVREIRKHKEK
Sequence of KRAS G12V (P62937 whole entry): as the sequence (P62937 whole entry) above
Sequence of NRAS G12C (P01111 whole entry G12C): as the sequence (P01111 whole entry) above, with G12C counted along it
Sequence of NRAS G12C (P62937 whole entry): as the sequence (P62937 whole entry) above
Sequence of K-Ras G12C (P01116-2 other isoform, or with tags, fused parts or gaps G12C): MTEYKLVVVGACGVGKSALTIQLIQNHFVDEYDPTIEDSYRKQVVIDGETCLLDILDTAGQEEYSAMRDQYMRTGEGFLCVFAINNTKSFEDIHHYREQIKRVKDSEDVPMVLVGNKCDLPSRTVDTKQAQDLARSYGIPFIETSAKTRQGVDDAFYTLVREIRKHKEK
Sequence of K-Ras G12C (P62937 whole entry): as the sequence (P62937 whole entry) above
Sequence of K-Ras G13C (P01116-2 other isoform, or with tags, fused parts or gaps G13C): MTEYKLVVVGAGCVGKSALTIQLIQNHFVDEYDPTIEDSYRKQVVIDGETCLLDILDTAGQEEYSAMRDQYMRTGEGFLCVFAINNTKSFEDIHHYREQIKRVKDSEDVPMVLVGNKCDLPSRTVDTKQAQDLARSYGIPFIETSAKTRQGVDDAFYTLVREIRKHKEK
Sequence of K-Ras G13C (P62937 whole entry): as the sequence (P62937 whole entry) above
Sequence of KRAS WT (P01116-2 other isoform, or with tags, fused parts or gaps): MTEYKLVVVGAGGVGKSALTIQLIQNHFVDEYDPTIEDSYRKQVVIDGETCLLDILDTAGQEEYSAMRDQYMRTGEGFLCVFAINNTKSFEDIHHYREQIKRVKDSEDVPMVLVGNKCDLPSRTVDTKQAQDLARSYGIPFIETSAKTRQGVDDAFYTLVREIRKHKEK
Sequence of KRAS WT (P62937 whole entry): as the sequence (P62937 whole entry) above
Sequence of KRAS G13D (P01116-2 other isoform, or with tags, fused parts or gaps G13D): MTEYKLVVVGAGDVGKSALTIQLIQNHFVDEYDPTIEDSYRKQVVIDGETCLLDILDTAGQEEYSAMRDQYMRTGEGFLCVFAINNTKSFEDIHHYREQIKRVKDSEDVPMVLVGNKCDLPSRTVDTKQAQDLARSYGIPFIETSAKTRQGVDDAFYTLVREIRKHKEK
Sequence of KRAS G13D (P62937 whole entry): as the sequence (P62937 whole entry) above
Sequence of KRAS G12S (P01116-2 other isoform, or with tags, fused parts or gaps G12S): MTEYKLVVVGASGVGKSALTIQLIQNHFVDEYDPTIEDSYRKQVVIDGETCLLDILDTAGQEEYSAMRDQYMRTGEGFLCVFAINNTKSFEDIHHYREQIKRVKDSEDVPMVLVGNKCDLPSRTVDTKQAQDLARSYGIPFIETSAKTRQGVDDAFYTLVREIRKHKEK
Sequence of KRAS G12S (P62937 whole entry): as the sequence (P62937 whole entry) above
Sequence of NRAS Q61R (P01111 whole entry Q61R): as the sequence (P01111 whole entry) above, with Q61R counted along it
Sequence of NRAS Q61R (P62937 whole entry): as the sequence (P62937 whole entry) above
Sequence of NRAS Q61K (P01111 whole entry Q61K): as the sequence (P01111 whole entry) above, with Q61K counted along it
Sequence of NRAS Q61K (P62937 whole entry): as the sequence (P62937 whole entry) above

SMILES | IC50 (KRAS WT) [nM] | IC50 (NRAS G12C) [nM] | IC50 (KRAS G12S) [nM] | IC50 (NRAS Q61R) [nM] | IC50 (K-Ras G13C) [nM] | IC50 (KRAS G13D) [nM] | IC50 (K-Ras G12C) [nM] | IC50 (KRAS G12V) [nM] | IC50 (NRAS Q61K) [nM] | IC50 (NRAS WT) [nM]
C=CC(=O)N(C)C1CN(C(=O)N(C)[C@H](C(=O)N[C@H]2Cc3nc(cs3)-c3ccc4c(c3)c(c(-c3cccnc3[C@H](C)OC)n4CC)CC(C)(C)COC(=O)[C@@H]3CCCN(N3)C2=O)C(C)C)C1 (atropisomer, axis not shown) [Example A463] | 100 to 1000 | 10 to 100 | 100 to 1000 | 100 to 1000 | 100 to 1000 | 100 to 1000 | 10 to 100 | 100 to 1000 | 10 to 100 | 100 to 1000
C=CC(=O)N1CC[C@H](C(=O)N(C)[C@H](C(=O)N[C@H]2Cc3nc(cs3)-c3ccc4c(c3)c(c(-c3cc5c(nc3[C@H](C)OC)CCN(C)C5)n4CC)CC(C)(C)COC(=O)[C@@H]3CCCN(N3)C2=O)C(C)C)C1 (atropisomer, axis not shown) [Example A472] | 1000 to 10000 | 100 to 1000 | 1000 to 10000 | 1000 to 10000 | 1000 to 10000 | 1000 to 10000 | 100 to 1000 | 1000 to 10000 | 1000 to 10000 | 1000 to 10000
C=CC(=O)N1CC[C@H](C(=O)N(C)[C@H](C(=O)N[C@H]2Cc3cc(C)cc(c3)-c3ccc4c(c3)c(c(-c3cccnc3[C@H](C)OC)n4CC)CC(C)(C)COC(=O)[C@@H]3CCCN(N3)C2=O)C(C)C)C1 (atropisomer, axis not shown) [Example A498] | 1000 to 10000 | 100 to 1000 | 1000 to 10000 | 1000 to 10000 | 1000 to 10000 | > 10000 | 100 to 1000 | 1000 to 10000 | 1000 to 10000 | 1000 to 10000
C=CC(=O)N1CC[C@H](C(=O)N(C)[C@H](C(=O)N[C@H]2Cc3cccc(c3)-c3ccc4c(c3)c(c(-c3cccnc3[C@H](C)OC)n4CC#CC)CC(C)(C)COC(=O)[C@@H]3CCCN(N3)C2=O)C(C)C)C1 (atropisomer, axis not shown) [Example A531] | 1000 to 10000 | 100 to 1000 | 1000 to 10000 | 1000 to 10000 | 1000 to 10000 | > 10000 | 100 to 1000 | 1000 to 10000 | 1000 to 10000 | 1000 to 10000
C=CC(=O)N1CCOC2(C1)CN(C(=O)N(C)[C@H](C(=O)N[C@H]1Cc3cccc(c3)-c3ccc4c(c3)c(c(-c3cccnc3[C@H](C)OC)n4CC(F)(F)F)CC(C)(C)COC(=O)[C@@H]3CCCN(N3)C1=O)C(C)C)C2 (atropisomer, axis not shown) [Example A538] | 100 to 1000 | 10 to 100 | 100 to 1000 | 100 to 1000 | 10 to 100 | 100 to 1000 | 10 to 100 | 100 to 1000 | 100 to 1000 | 100 to 1000
CO[C@@H](C)c1ncccc1-c1c2c3cc(ccc3n1CC(F)(F)F)-c1cccc(c1)C[C@H](NC(=O)[C@H](C(C)C)N(C)C(=O)N1CCC3(CC1)CN(C(=O)/C=C/CN(C)C)C3)C(=O)N1CCC[C@H](N1)C(=O)OCC(C)(C)C2 (atropisomer, axis not shown) [Example A555] | 100 to 1000 | 100 to 1000 | 100 to 1000 | 100 to 1000 | 10 to 100 | 100 to 1000 | 100 to 1000 | 100 to 1000 | 100 to 1000 | 100 to 1000
CCn1c(-c2cccnc2[C@H](C)OC)c2c3cc(ccc31)-c1cccc(c1)C[C@H](NC(=O)[C@H](C(C)C)N1CC[C@@]3(CCN(C(=O)C#C[C@H]4COCCN4C4COC4)C3)C1=O)C(=O)N1CCC[C@H](N1)C(=O)OCC(C)(C)C2 (atropisomer, axis not shown) [Example A567] | 1000 to 10000 | 10 to 100 | 1000 to 10000 | 1000 to 10000 | 100 to 1000 | 1000 to 10000 | 10 to 100 | 1000 to 10000 | 1000 to 10000 | 1000 to 10000
C=CC(=O)N1CCO[C@H]2CN(C(=O)N(C)[C@H](C(=O)N[C@H]3Cc4coc(n4)-c4ccc5c(c4)c(c(-c4cccnc4[C@H](C)OC)n5CC(F)(F)F)CC(C)(C)COC(=O)[C@@H]4CCCN(N4)C3=O)C(C)C)C[C@H]21 (atropisomer, axis not shown) [Example A574] | 1000 to 10000 | 10 to 100 | 1000 to 10000 | 1000 to 10000 | 10 to 100 | 1000 to 10000 | 100 to 1000 | 1000 to 10000 | 100 to 1000 | 1000 to 10000
C=CC(=O)N1C[C@@H](N(C)C(=O)N(C)[C@H](C(=O)N[C@H]2Cc3nc(cs3)-c3ccc4c(c3)c(c(-c3cccnc3[C@H](C)OC)n4CC)CC(C)(C)COC(=O)[C@@H]3CCCN(N3)C2=O)C(C)C)[C@@H](C)C1 (atropisomer, axis not shown) [Example A583] | 100 to 1000 | 100 to 1000 | 100 to 1000 | 100 to 1000 | 100 to 1000 | 1000 to 10000 | 100 to 1000 | 1000 to 10000 | 100 to 1000 | 100 to 1000
C=CC(=O)N1C[C@H](C)N(C(=O)N(C)[C@H](C(=O)N[C@H]2Cc3nc(cs3)-c3ccc4c(c3)c(c(-c3cccnc3[C@H](C)OC)n4CC)CC(C)(C)COC(=O)[C@@H]3CCCN(N3)C2=O)C(C)C)CC12CC2 (atropisomer, axis not shown) [Example A586] | 100 to 1000 | 100 to 1000 | 100 to 1000 | 100 to 1000 | 100 to 1000 | 1000 to 10000 | 100 to 1000 | 100 to 1000 | 100 to 1000 | 100 to 1000
C=CC(=O)N1C[C@@H](C)[C@H](N(C)C(=O)N(C)[C@H](C(=O)N[C@H]2Cc3nc(cs3)-c3ccc4c(c3)c(c(-c3cccnc3[C@H](C)OC)n4CC)CC(C)(C)COC(=O)[C@@H]3CCCN(N3)C2=O)C(C)C)C1 (atropisomer, axis not shown) [Example A588] | 1000 to 10000 | 100 to 1000 | 1000 to 10000 | 1000 to 10000 | 1000 to 10000 | 1000 to 10000 | 100 to 1000 | 1000 to 10000 | 100 to 1000 | 1000 to 10000
C=CC(=O)Nc1cnc(OC[C@H](C(=O)N[C@H]2Cc3cccc(c3)-c3ccc4c(c3)c(c(-c3cccnc3[C@H](C)OC)n4CC)CC(C)(C)COC(=O)[C@@H]3CCCN(N3)C2=O)C(C)C)n1C (atropisomer, axis not shown) [Example A600] | 100 to 1000 | < 10 | 1000 to 10000 | 1000 to 10000 | 10 to 100 | 1000 to 10000 | < 10 | 1000 to 10000 | 1000 to 10000 | 100 to 1000
